From patent US20250352518A1, “A BENZIMIDAZOLE COMPOUND WITH ANTIHELMINTHIC ACTIVITY FOR USE IN REVERSING, ARRESTING OR SLOWING DOWN CELLULAR AGEING IN A VERTEBRATE SUBJECT” (RAVAN BIO LIMITED, priority 2022, published 2025)

What was measured:
[1] = Canine case studies: biological age by breed-specific telomere length (DNA-My-Dog); type: in vivo; conditions: for reduction in biological age: versus chronological age
Protocol: In 2017, a […] (D.O.B Jan. 5, 2008) female Lhasa Apso/Jack Russell/Shih Tzu cross-breed (confirmed by genetic breed analysis: DNA-My-Dog) with a body mass of 9 Kg, was treated with 0.6 gm/day of 22.2% Fenbendazole (Panacur® granules) which was given orally for 3 consecutive days/week for 1 month and this cycle was repeated every 3rd month giving 4 cycles/annum providing a total of 16×1 month treatment cycles spread over a period of 4 yrs up to the present day.
Subject C2A's chronological age was verified by microchip implantation date using the Petlog database and, in March 2022, a cheek epithelium swab was sent to DNA-My-Dog for genetic assessment of breed composition and biological age by analysis of breed-specific telomere length. The results, returned on the 30 Mar. 2022, reported a biological age of 3 yrs old. Three more treatment cycles were subsequently administered and a repeat biological age telomere test carried out on the 30 Sep. 2022 which also returned a biological age of 3 yrs old. […] Translating these findings to humans, a 14 yr old Lhasa Apso has an equivalent human age of about 72 whereas a 3 yr old has an equivalent human age of about 28. This indicates a potential reduction in human age of 44 yrs which would equate to a 61% reduction of biological age in humans.
In 2017, a 4 yr old Jack Russell/Poodle/Maltese cross-breed (Confirmed by genetic breed analysis: DNA-My-Dog) with a body mass of 9.2 Kg was treated with 1.0 gm/day of 22.2% Fenbendazole Panacur® granules for 3 days per week and 4 days without. The dosing schedule of 3 days with, 4 days without treatment per week was continued for 3 months after which the dose was reduced to 0.6 gm/day of Panacur® and treatment alternated between 1 month with and 1 month without for 19 months providing a total of 11×1 month treatment cycles over the whole time period. After this, treatment was discontinued for 2 years and 5 months up to 12 May 2022 when a cheek swab was taken for analysis of biological age and this was repeated 5 months later on the 30 Sep. 2022.
The initial reason for treating this animal was that it had been diagnosed with an anal sac adenocarcinoma and, at the time, it was decided to explore the use of Fenbendazole as an alternative treatment. […] Subject C2B's birth date was May 2014 giving a chronological age of 8 yrs which was verified by microchip implantation date using the Petlog database. Following the outlined treatment with Fenbendazole, in April 2022, a cheek epithelium swab was sent to DNA-My-Dog for assessment of breed composition and biological age by analysis of breed-specific telomere length. The result, returned on the 12 May 2022, reported a biological age of 1 yr old indicating a reduction in biological age of 7 yrs. which is equivalent to ˜90% reduction in biological age. […] After a further gap of 5 months without treatment, on the 30 Sep. […] However, unlike subject C2A, no treatment was given during this period so the most likely explanation is that the efficacy time-limit of the initial treatment has been exceeded.

[2] = Rat 4 month medicated feed study: mortality and appetite; type: in vivo, Sprague-Dawley rats
From the text: Seventy-eight Sprague-Dawley rats aged either 16 or 22 months were maintained with daily 12-hour light/dark cycles and allowed constant access to feed and water. The animals were bred and housed at the Cantacuzino National Medico-Military Institute for Research and Development, Bucharest 050096, Romania. These animals were split into 3 separate groups of 26, each containing the same number of younger and older animals, which were then given the following feeds prepared by Altromin Spezialfutter GmbH & Co. for a period of 4 months: • (A) Control maintenance feed plus standard multivitamin supplement (No API's) • (B) Formulation (A) plus 80 mg/Kilo of Fenbendazole. • (C) Formulation (B) plus 12.5 mg/Kilo Tadalafil. A buccal swab was then taken from each animal using an OracollectDNA OCR-100 sampling device (DNA Genotek, Canada). DNA was extracted using a DNeasy® Blood & Tissue Kit (Qiagen UK, Cat No 69505) which was checked for purity and quantified with a QuickDrop Spectrophotometer (Molecular Devices, Model 504 7178). This material was then used to analyse relative telomere length as described in section 1.6 except that the Relative Rat Telomere Length Quantification qPCR Assay Kit (ScienCell Research Labs, Catalog No. R8908) was used. Five consecutive samples from each of the three treatment groups were analysed on each 96 well PCR plate to minimize any inter-plate variability.

[3] = system: post-confluent NHEK cells; test: Growth of re-cultured post-confluent (cell-cell contact growth arrested) NHEK's; type: cell-based, human
[4] = dog C2A findings translated to equivalent human age

## COC(=O)Nc1nc2ccc(Sc3ccccc3)cc2[nH]1 [Fenbendazole, methyl 5-(phenylthio)-2-benzimidazole carbamate]
[1]; [4]
  potential reduction in human age: 44 yrs
  reduction of biological age in humans: 61%
[1]; dog C2A, 30 Sep. 2022, after three more treatment cycles
  biological age (repeat test): 3 yrs
[1]; dog C2A, chronological age 14 yrs, result 30 Mar. 2022, 0.6 gm/day Panacur granules 3 days/week, 1 month cycles over 4 yrs
  biological age: 3 yrs
[1]; dog C2A
  reduction in biological age: 11 yrs
[1]; dog C2A, over 4 years
  reduction in biological age: ~80%
[1]; dog C2B, 30 Sep. 2022, further 5 months without treatment
  biological age (repeat test): 3 yrs
[1]; dog C2B, chronological age 8 yrs, result 12 May 2022, 19 months treatment then 2 yrs 5 months without
  biological age: 1 yr
[2]; 4 months medicated feed
  appetite versus control: greater
[2]; after 4 months of medicated feed, groups of 26 rats aged 16 or 22 months, control 18
  surviving animals: 23
[2]; after 4 months of medicated feed, control 30.7%
  mortality: 11.5%
[3]; treatment P3-P5 only, withdrawn following passage 6, 5 days, FIG. 5
  number of viable cells (Via-1 Assay) following withdrawal of drug: 9.7×10^4 cells/ml
[3]; treatment continued for passages P3-P6, 5 days after passage 6, FIG. 5
  number of viable cells (Via-1 Assay): 9.5×10^4 cells/ml
